Laboratory results from US20040074447A1, “Methods of reducing incidence of stillborn pigs by using progesterone receptor antagonists” (priority 2002, published 2004).
Several values for one entry are separate records, joined by “and”; a condition that tells them apart may be missing. Equal entries are not always repeated. Where two headings read alike, the source gives them in different places. Marks after values point to notes of the source that are not given here.

Tests used:
[1] = test system: swine; details: cited from earlier work
[2] = test system: progesterone in plasma; test: Example 1: progesterone in plasma by RIA around farrowing; type: in vivo, swine; details: for Mean concentration of progesterone in plasma: n in parentheses; for p4 = concentration of progesterone in plasma: trt 2, individual animals
Method: Blood samples. Blood samples were collected from all animals (including T1 and T2) prior to administration of test article at 7:30 am on days 112 and 113. In addition, a PM blood sample was collected beginning at approximately 1:30 pm on days 112 and 113. Additional blood samples were collected at 7:30 am and 1:30 pm on subsequent days (>or =day 114). The final blood sample was collected after farrowing was complete. All blood samples (7 ml) were collected using sodium heparin vacutainers. Samples were refrigerated, centrifuged, and plasma was separated within 2 hr after collection. One aliquot of each sample was sent to Cornell Veterinary Diagnostic Lab for progesterone analyses by RIA.
(§1) Data/Analyses. Response variables measured in this study were: hours from the time of the 1st dosing on day 112 post-breeding to birth of the 1st pig, hours from the 2nd dosing on day 113 to birth of the 1st pig, number of piglets that were alive at birth (born alive), stillborn (normal appearance term piglet, but dead at time of birth), and mummies (smaller than littermates, decayed at birth). The variables were analyzed using a mixed model analysis (proc mixed, SAS) with block as a random effect and treatment as a fixed effect. Concentrations of progesterone were analyzed using a repeated measure mixed model analysis, with block as a random effect and treatment as a fixed effect.

[3] = test system: pregnant crossbred female swine; test: Example 2: induction of farrowing in pregnant gilts, oral CP161,258 (two doses or single dose) or intramuscular porcine relaxin; type: in vivo; details: for Hr, Dose d 112 To 1st pig ± SD / Hr, Dose d 113 To 1st pig ± SD: mean ± SD; for Piglet data: Born alive / Piglet data: Mummies / Piglet data: Stillborn: mean
Method: Animals. […] This BW was used to calculate the amount of test article to administer (T2 and T3).
Randomization of animals. Animals were ranked according to expected farrowing date and then randomly assigned to treatment within blocks of 4 animals each.
Test article administration. […] For treatment groups T2 and T3, test article was diluted (a suspension) to a concentration of 25 mg/ml in 50% propylene glycol and stored refrigerated (2-8° C.).
For treatment groups T2 and T3, animals were snared and test article was administered orally using a 60 ml syringe. […] One container of approximately 440 ml was mixed and used within each week of the 3 wk study. Each animal assigned to T2 or T3 also received approximately 30 ml of tap water to insure that test article was swallowed.
Porcine relaxin was diluted to a concentration of 1200 U/ml in sterile physiological saline on the first day of use. Diluted porcine relaxin was stored in a locked refrigerator and removed only when injections took place. Relaxin (1 ml-T4) was administered intramuscularly in the lower part of the ham of either leg with an 18-gauge, 1.5″ long needle attached to a 3 ml syringe.
Administration of test articles occurred between 7:30 am and 8:30 am on almost all days of the study.
Piglets. Response variables measured in this study were: hours from the 1st treatment to the birth of the 1st pig, number of piglets that were alive at birth (born alive), stillborn (normal appearance term piglet, but dead at time of birth), and mummies (smaller than littermates, decayed at birth). Animals were not processed (no iron shots, no clipping of needle teeth, no individual identification), but umbilical cords were clipped to […]. length if animals could not be euthanized within 2 days after birth.
Data/Analyses. […] Data were analyzed using a mixed model analysis with block as a random effect and treatment as a fixed effect (proc mixed, SAS).

[4] = test system: pregnant crossbred female swine; type: in vivo
From the text: The objectives of this study were to determine the effects of administration of the progesterone receptor antagonist CP161,258 on the concentration of progesterone, the time interval from the 1st administration of test article on day 112 to birth of the 1st pig, the time interval from the 2nd administration of test article to birth of the 1st pig, and the status of piglets at birth (alive, stillborn, mummies).
Animals. Twenty pregnant crossbred female swine were purchased and delivered to Terre Haute on approximately day 102-107 of gestation. These animals were placed in farrowing crates in building 608W. Animals assigned to T2 averaged 195 kg BW. Animals (sows and piglets) were euthanized within 48 hr post-farrowing or on day 116 post-mating. There was no estimate of pre-weaning mortality in this study.
Randomization of animals. Animals were ranked according to expected farrowing date and randomly assigned to treatment within blocks of 2 animals each.
Test article administration. […] For treatment group T2, test article was diluted to a concentration of 25 mg/ml in 50% propylene glycol and water, and stored refrigerated (2-8° C.). Test article was administered orally after the morning blood sample was collected. The volume administered was approximately 30 ml to deliver a dosage of 4 mg/kg BW. Animals were administered with approximately 30 ml of water following administration of test article.
Early/late farrowing. […] If animals farrowed before day 114, the final blood sample was collected after farrowing was complete.
as §1

[5] = relative to propranolol; cited from earlier work
[6] = test system: sows in labor; details: 150 μg, sows in labor before birth of the first pig; cited from earlier work
[7] = test system: sheep; details: 5 or 10 mg/kg BW; cited from earlier work
[8] = T2: 4 mg/kg BW CP161,258 oral D 112 + 113, counted from (day 112)
[9] = T2: 4 mg/kg BW oral D 112 + 113
[10] = T3: 8 mg/kg BW CP161,258 oral D 113, counted from (day 113)
[11] = Treatment 2: 4 mg/kg oral days 112 and 113, individual animals, 4 mg/kg
[12] = Treatment 3: 8 mg/kg oral day 113, individual animals, 8 mg/kg
[13] = 4 mg/kg BW orally days 112 and 113
[14] = T2: 4 mg/kg BW CP161,258 orally D 112 + 113, mean ± SD, n in parentheses
[15] = T2: 4 mg/kg BW orally D 112 + 113, mean per litter

## CC#CC1(O)CCC2C3CCC4=CC(=O)CCC4=C3C(c3ccc(N(C)C)cc3)CC21C (stereo not shown) [CP161,258, 11-(4-Dimethylamino-phenyl)-17-hydroxy-13-methyl-17-prop-1-ynyl-1,2,6,7,8,11,12,13,14,15,16,17-dodecahydro-cyclopenta[a]phenanthren-3-one]
[1]; 4 mg/kg body weight on days 111 and 112 post-breeding
  induction of parturition: effectively induced parturition
[2]; 4 mg/kg orally days 112 and 113
  concentrations of progesterone in plasma in the −24 hr period preceding parturition, compared to non-medicated controls: remained higher
[2]; Sample time 0 (immediately before farrowing), T2
  Mean concentration of progesterone in plasma: 7.5 (9) ng/ml
[2]; Sample time 1 (within 12 hr after farrowing was complete), T2
  Mean concentration of progesterone in plasma: 1.5 (9) ng/ml
[2]; Sample time −1 relative to farrowing, T2
  Mean concentration of progesterone in plasma: 12.3* (9) ng/ml
[2]; Sample time −2 relative to farrowing, T2
  Mean concentration of progesterone in plasma: 14.0* (8) ng/ml
[2]; Sample time −3 relative to farrowing, T2
  Mean concentration of progesterone in plasma: 14.5 (5) ng/ml
[2]; Sample time −4 relative to farrowing, T2 4 mg/kg orally days 112 and 113
  Mean concentration of progesterone in plasma: 14.2 (2) ng/ml
[2]; time 0 (immediately before farrowing)
  p4 = concentration of progesterone in plasma: 5.76 ng/mL and 8.12 ng/mL and 5.62 ng/mL and 9.45 ng/mL and 13.37 ng/mL and 4.95 ng/mL and 9.41 ng/mL and 5.64 ng/mL and 7.17 ng/mL
[2]; time 1 (within 12 hr after farrowing was complete)
  p4 = concentration of progesterone in plasma: 2.05 ng/mL and 1.34 ng/mL and 0.82 ng/mL and 1.62 ng/mL and 1.95 ng/mL and 4.50 ng/mL and 1.64 ng/mL and 1.11 ng/mL and 0.79 ng/mL
[2]; time −1
  p4 = concentration of progesterone in plasma: 8.27 ng/mL and 13.76 ng/mL and 13.88 ng/mL and 15.46 ng/mL and 18.89 ng/mL and 7.63 ng/mL and 8.18 ng/mL and 10.70 ng/mL and 16.70 ng/mL
[2]; time −2
  p4 = concentration of progesterone in plasma: 12.42 ng/mL and 17.27 ng/mL and 13.89 ng/mL and 15.47 ng/mL and 13.96 ng/mL and 15.17 ng/mL and 10.92 ng/mL and 17.76 ng/mL
[2]; time −3
  p4 = concentration of progesterone in plasma: 14.93 ng/mL and 13.88 ng/mL and 15.28 ng/mL and 14.66 ng/mL and 16.68 ng/mL
[2]; time −4
  p4 = concentration of progesterone in plasma: 15.25 ng/mL and 13.49 ng/mL
[3]; [8]
  Hr, Dose d 112 To 1st pig ± SD: 45 ± 26^a (13) Hr
  Hr, Dose d 113 To 1st pig ± SD: 45 ± 26^b (13) Hr
[3]; [9]
  Piglet data: Born alive: 9.2 (13)
  Piglet data: Mummies: 0.4* (13)
  Piglet data: Stillborn: 0.7 (13)
[3]; T2: 4 mg/kg days 112 and 113, numerically, not statistically
  number of stillborns lower compared with T1 non-medicated controls: 0.4 pigs/litter
[3]; T2: 4 mg/kg on days 112 and 113 (4/13)
  percent of animals that started farrowing on day 114: 31%
[3]; T2: 4 mg/kg on days 112 and 113 (7/13)
  percent of animals that started farrowing on day 113: Fifty-four
[3]; T2 CP161,258 D 112 + 113, individual animals
  Reason (animals with incomplete data): Dystocia
[3]; [10]
  Hr, Dose d 112 To 1st pig ± SD: 33 ± 20 (13) Hr
  Hr, Dose d 113 To 1st pig ± SD: 33 ± 20^c (13) Hr
[3]; T3: 8 mg/kg BW on day 113 (11/13)
  percent of animals that started farrowing on day 114: 85%
[3]; T3: 8 mg/kg BW oral D 113
  Piglet data: Born alive: 8.6 (13)
  Piglet data: Mummies: 0.2 (13)
  Piglet data: Stillborn: 0.5 (13)
[3]; T3: single dose 8 mg/kg BW day 113, numerically, not statistically
  number of stillborns reduced compared with T1 non-medicated controls: 0.6 pigs/litter
[3]; [11]
  Born Alive: 8 and 13 (2×) and 10 (3×) and 9 (2×) and 7 and 2 and 12 and 6 and 11
  Hr, 1st treatment to 1st pig: 22.5 h and 24.5 h and 26.4 h and 28.6 h and 28.9 h and 32.1 h and 33.6 h and 45.7 h and 46 h and 46.3 h and 49.1 h and 96.3 h and 101 h
  Mummies: 0 (9×) and 2 and 1 (3×)
  Still-born: 1 (9×) and 0 (4×)
[3]; [12]
  Born Alive: 6 (3×) and 13 and 12 and 10 (3×) and 7 and 14 and 11 and 4 and 3
  Hr, 1st treatment to 1st pig: 49 h and 96 h and 21.2 h and 23.7 h and 24.4 h and 24.5 h and 24.7 h and 25.1 h and 25.2 h and 25.3 h and 26.3 h and 27.1 h and 34.4 h and 93.8 h
  Mummies: 0 (10×) and 1 (3×)
  Still-born: 0 (8×) and 2 (2×) and 1 (3×)
[3]; single dose of 8 mg/kg BW
  percent of animals that farrowed 24 to 27 hr post-dosing: 70%
  percent of animals that farrowed between 21 and 35 hr after dosing: 85%
[4]; 4 mg/kg BW days 112 and 113 of gestation
  time interval from the 1st administration to the onset of parturition, relative to non-medicated controls: half
[4]; [13]
  number of piglets born dead (stillborns), mean: 0.1 pigs/litter
  percent of animals that farrowed the day following the first treatment (day 113, within 1 day): 44% and 45%
  percent of animals with onset of parturition within 2 days: 100%
  percent of treated animals that farrowed on day 114: 56%
[4]; [14]
  Hr, 1st dose d 112 To 1st pig ± SD: 36 ± 15 (9) Hr
  Hr, 2nd dose d 113 To 1st pig ± SD: 36 ± 15 (9) Hr
[4]; [15]
  Piglet data: Born alive: 8.9 (9)
  Piglet data: Mummies: 0 (9)
  Piglet data: Stillborn: 0.1* (9)
[4]; T2: 4 mg/kg orally days 112 and 113, individual animals
  Mummified fetuses: 0

## CC(C)NCC(O)COc1cccc2[nH]c3ccccc3c12 (stereo not shown) [carazolol]
[5]
  membrane stabilizing potential, less than that of propranolol: 13 fold

## CC(C)(C)NCC(O)c1cc(Cl)c(N)c(Cl)c1 (stereo not shown) [clenbuterol]
[6]
  delay of parturition: up to 15 hr

## C[C@]1(O)CC[C@H]2[C@@H]3CC[C@@]45O[C@]4(C)C(O)=C(C#N)C[C@]5(C)[C@H]3CC[C@@]21C [Epostane]
[7]
  interval from oral administration to birth of lambs: 33 h
[1]; oral, 5 or 10 mg/kg BW
  interval from oral administration to birth of the first pig: about 34 hr
